Reference: ChEMBL document CHEMBL1157961, “Nitrogen-containing phorbol esters from Croton ciliatoglandulifer and their effects on cyclooxygenases-1 and -2” (J Nat Prod, 2006)
pIC50: −log10 of the molar value.

Assays:
[1] = molecular target: T1, Prostaglandin G/H synthase 1 (Ovis aries, UniProt P05979); assay: Inhibition of ovine COX1
T1 sequence (P05979 whole entry): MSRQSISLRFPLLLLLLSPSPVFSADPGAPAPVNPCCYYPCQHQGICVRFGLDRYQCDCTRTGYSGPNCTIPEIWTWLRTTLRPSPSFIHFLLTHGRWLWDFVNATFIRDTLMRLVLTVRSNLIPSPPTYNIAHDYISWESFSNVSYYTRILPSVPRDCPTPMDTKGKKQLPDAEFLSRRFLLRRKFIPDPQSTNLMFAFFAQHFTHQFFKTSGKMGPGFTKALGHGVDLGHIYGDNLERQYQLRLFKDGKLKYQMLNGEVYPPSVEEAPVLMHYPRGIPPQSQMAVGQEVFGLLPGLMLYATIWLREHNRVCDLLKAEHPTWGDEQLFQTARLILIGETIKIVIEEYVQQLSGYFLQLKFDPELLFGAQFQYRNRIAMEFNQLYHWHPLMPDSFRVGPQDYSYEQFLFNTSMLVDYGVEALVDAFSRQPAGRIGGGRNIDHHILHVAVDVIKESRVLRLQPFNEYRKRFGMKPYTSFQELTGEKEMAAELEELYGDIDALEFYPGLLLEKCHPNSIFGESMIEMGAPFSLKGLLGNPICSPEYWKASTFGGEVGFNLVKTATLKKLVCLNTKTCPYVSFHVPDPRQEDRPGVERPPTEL

[2] = molecular target: T2, Prostaglandin G/H synthase 2 (Homo sapiens, UniProt P35354); assay: Inhibition of human recombinant COX2
T2 sequence (P35354 whole entry): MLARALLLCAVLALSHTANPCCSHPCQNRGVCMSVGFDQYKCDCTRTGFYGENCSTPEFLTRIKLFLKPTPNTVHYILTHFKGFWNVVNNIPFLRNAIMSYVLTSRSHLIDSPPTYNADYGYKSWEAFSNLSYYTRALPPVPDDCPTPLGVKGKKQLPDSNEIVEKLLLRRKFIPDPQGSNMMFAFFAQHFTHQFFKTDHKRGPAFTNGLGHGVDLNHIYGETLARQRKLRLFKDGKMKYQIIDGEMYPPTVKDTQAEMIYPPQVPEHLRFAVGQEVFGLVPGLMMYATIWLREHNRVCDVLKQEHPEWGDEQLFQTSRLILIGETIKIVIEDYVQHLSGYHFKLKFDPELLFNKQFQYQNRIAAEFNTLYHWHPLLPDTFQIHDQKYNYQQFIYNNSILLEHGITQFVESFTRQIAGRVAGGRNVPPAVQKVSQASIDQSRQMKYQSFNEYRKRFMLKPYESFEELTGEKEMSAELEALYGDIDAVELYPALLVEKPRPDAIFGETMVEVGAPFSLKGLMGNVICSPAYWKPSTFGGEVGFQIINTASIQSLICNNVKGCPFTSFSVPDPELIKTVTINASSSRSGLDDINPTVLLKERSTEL

Compound CC(=O)O[C@@]12[C@H](OC(=O)[C@@H](C(C)C)N(C)C)[C@@H](C)[C@]3(O)[C@@H]4C=C(C)C(=O)[C@@H]4CC(CO)=C[C@H]3[C@@H]1C2(C)C has a pIC50 [1] of 9.00 and a pIC50 [2] of 5.66.

For CC(=O)O[C@@]12[C@H](OC(=O)[C@@H](C(C)C)N(C)C)[C@@H](C)[C@@]3(O)[C@@H](C=C(CO)C[C@@]4(O)C(=O)C(C)=C[C@@H]34)[C@@H]1C2(C)C, the pIC50 [1] was 9.00 and the pIC50 [2] was 5.66.

With CC(=O)O[C@@]12[C@H](OC(=O)[C@H](C(C)C)N(C)C)[C@@H](C)[C@]3(O)[C@@H]4C=C(C)C(=O)[C@@H]4CC(CO)=C[C@H]3[C@@H]1C2(C)C the pIC50 [1] was < 4.00 and the pIC50 [2] was < 4.00.

For CC(=O)O[C@@]12[C@H](OC(=O)C(=C(C)C)N(C)C)[C@@H](C)[C@]3(O)[C@@H]4C=C(C)C(=O)[C@@H]4CC(CO)=C[C@H]3[C@@H]1C2(C)C, the pIC50 [2] was < 4.00.
